Laboratory results from patent publication US6506901B2, “Substituted 2-(S)-hydroxy-3-(piperidin-4-yl-methylamino)-propyl ethers and substituted 2-aryl-2-(R)-hydroxy-1-(piperidin-4-yl-methyl)-ethylamine β-3 adrenergic receptor agonists” (Wyeth, priority 2000, dated 2003).
Values joined by “and” are separate entries in the source; they are usually repeats but may differ in a detail not shown here. Identical values can stand only once. Counter-ions that a name gives are not always drawn.

Experiments:
[1] = tested on: β3 human transgenic mice; assay: Thermogenesis (Oxymax indirect calorimeter) in β3 transgenic (Tg) mice; assay type: in vivo, mice (FVB); conditions: percent increase in thermogenesis over baseline; for change in vivo at 10 mg/kg: Mus musculus, ip, IP 10 mg/kg
Source text: Evaluation in β3 Knockout(KO) and β3 Transgenic(Tg) Mice: The ability of compounds of this invention to treat or inhibit disorders related to insulin resistance or hyperglycemia was also confirmed with representative compounds of this invention in an in vivo standard pharmacological test procedure which compared thermogenesis in transgenic mice (Tg mice) and β3-knockout mice (KO mice).
β3-Adrenergic receptor knockout mice and β3 human transgenic mice are created on an inbred FVB background (Susulic, V. S., et.al., J. Biol. Chem., 1995, 270 (49), 29483-29492). Female FVB β3 transgenic and β3 knockout mice were used to determine in vivo activity and selectivity of β3 agonists. […] These compounds were also selective in being 100-fold less responsive and partial agonists when tested in β1 and β2 transfected CHO cells. Compounds were tested for increased thermogenesis using the Oxymax indirect calorimeter (Columbus Instruments, Columbus, Ohio). Fed animals were placed in chambers for 3 hours to obtain baseline O2 and CO2 values. Eight fed mice were weighed in pairs and placed in 4 chambers, two per chamber. The relative gas content of each chamber was sampled and recorded at 10 to 12 minute intervals. For each sample, energy expenditure values were calculated by the Oxymax and expressed as kcal/hr. After 3 hours of baseline measurement, the mice were removed, treated and replaced in the chambers. The β3 agonists were injected at doses between 0.1 and 20 mg/kg i.p. and between 1.0 and 30 mg/kg for oral administration. Compounds in 10 mM or 10 mg/ml DMSO solutions were suspended in 0.5% methylcellulose: 0.1% tween-80 and injected i.p. or administered by oral gavage. Some compounds were suspended in 5.0% tween-80 for oral administration. Post-treatment kcal/hr values were taken between 40 minutes and 2.5 hours later. The 6 to 10 sample sections of the pre-treatment and post-treatment periods, which appear to best represent stable resting thermogenesis, were selected. Each of these sample values was corrected for body weight and used such that each pair of mice serves as its own baseline for both T test and percent increase in thermogenesis calculations. An ANOVA and a one sided T test (H1: Post>Pre) are performed using the SAS software modified to down weight extreme values. In a separate set of calculations, values that appear to be too high to represent resting thermogenesis are discarded (activity monitor sampling associated spikes in thermogenesis with ambulatory activity). The mean baseline value for each chamber is subtracted from mean post-treatment value for that chamber. This baseline-subtracted value is divided by the mean baseline value and multiplied by 100 to obtain a percent increase in thermogenesis for each chamber. The combined mean percent increase, standard deviation, and standard error of the mean for each chamber is calculated. Compounds were considered active if they were able to produce a statistically significant 15% increase in thermogenesis in β3 transgenic mice and no significant increase in β3 knockout mice.

[2] = biological target: T1, human β3 receptors (Homo sapiens, UniProt P13945); assay: cAMP response (SPA) in CHO cells expressing cloned human β3 adrenergic receptor; assay type: cell-based; conditions: for EC50: CHO cells expressing human β3 receptor, cAMP, 30 min incubation, 10^−9 M to 10^−5 M; for IA(β3): maximal response compared to the maximal response of isoproterenol at 10^−5 M
T1 construct: Full length β3 AR clones (402 amino acids) containing the last 6 amino acids of hβ3—AR; expressed in transfected cells; host or cells: CHO cells
T1 sequence (P13945 whole entry): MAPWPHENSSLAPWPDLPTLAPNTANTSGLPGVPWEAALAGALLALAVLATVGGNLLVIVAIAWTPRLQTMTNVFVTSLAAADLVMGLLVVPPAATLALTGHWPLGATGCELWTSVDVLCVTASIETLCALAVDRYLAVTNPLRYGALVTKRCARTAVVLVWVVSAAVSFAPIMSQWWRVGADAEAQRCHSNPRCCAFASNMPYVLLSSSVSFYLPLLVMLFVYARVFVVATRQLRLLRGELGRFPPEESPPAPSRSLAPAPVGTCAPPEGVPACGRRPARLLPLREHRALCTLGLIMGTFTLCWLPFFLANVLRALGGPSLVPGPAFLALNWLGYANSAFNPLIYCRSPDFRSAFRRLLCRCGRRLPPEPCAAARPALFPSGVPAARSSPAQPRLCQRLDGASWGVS
Summary of the method: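 CHO cells transfected with cloned human β3-AR were incubated with compound at 37° C for 30 min, stopped with 0.2N HCl and neutralized. cAMP was measured by SPA. Activity is expressed as per cent of the maximal isoproterenol (10^−5 M) response.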

| Structure (SMILES) | melting point | change in vivo at 10 mg/kg ([1]; mouse type homo) [%] | further results |
| --- | --- | --- | --- |
| O/N=C1\c2ccccc2-c2c(OC[C@@H](O)CNCC3CCN(c4ccnc5cc(C(F)(F)F)ccc45)CC3)cccc21 (as salt: hydrochloride) [Example 4, 4-((2S)-2-Hydroxy-3-{[1-(7-trifluoromethyl-quinolin-4-yl)-piperidin-4-ylmethyl]-amino}-propoxy)-fluoren-9-one Oxime] | 171 °C |  |  |
| O[C@@H](CNCC1CCN(c2cc(C(F)(F)F)ccn2)CC1)COc1cccc2[nH]c3ccccc3c12 [Example 5, (2S)-1-(9H-Carbazol-4-yloxy)-3-[(4′-trifluoromethyl-3,4,5,6-tetrahydro-2H-[1,2′]bipyridinyl-4-ylmethyl)-amino]-propan-2-ol] | 137 to 138 °C |  |  |
| O[C@@H](CNCC1CCN(CCC(F)(F)F)CC1)COc1cccc2[nH]c3ccccc3c12 [Example 10, (2S)-1-(9H-Carbazol-4-yloxy)-3-{[1-(3,3,3-trifluoro-propyl)-piperidin-4-ylmethyl]-amino}-propan-2-ol] |  |  | change in vivo at 10 mg/kg ([1]; mouse type hetero): -15% |
| O[C@@H](CNCC1CCN(CCC(F)(F)F)CC1)COc1ccc(Br)c2[nH]c3ccccc3c12 [Example 16, (2S)-1-(1-Bromo-9H-carbazol-4-yloxy)-3-{[1-(3,3,3-trifluoro-propyl)-piperidin-4-ylmethyl]-amino}-propan-2-ol] | 79 °C |  |  |
| OCCCCCCCCCCCCN1CCC(CNC[C@H](O)COc2cccc3[nH]c4ccccc4c23)CC1 [Example 30, 12-(4-{[(2S)-3-(9H-Carbazol-4-yloxy)-2-hydroxy-propylamino]-methyl}-piperidin-1-yl)-dodecan-1-ol] | 110 °C |  | EC50 [2]: 1.24 µM; IA(β3) [2]: 0.53 |
| O=C(O)c1cccc(NC(=O)N2CCC(CNC[C@H](O)COc3cccc4[nH]c5ccccc5c34)CC2)c1 [Example 51, 3-[(4-{[(2S)-3-(9H-Carbazol-4-yloxy)-2-hydroxy-propylamino]-methyl}-piperidine-1-carbonyl)-amino]-benzoic Acid] | 238 to 240 °C (dec.) |  |  |
| CCCCCCNC(=O)Nc1ccc(S(=O)(=O)N2CCC(CNC[C@H](O)COc3cccc4[nH]c5ccccc5c34)CC2)cc1 [Example 58, 1-[4-(4-{[(2S)-3-(9H-Carbazol-4-yloxy)-2-hydroxy-propylamino]-methyl}-piperidine-1-sulfonyl)-phenyl]-3-hexyl-urea] |  |  | change in vivo at 10 mg/kg ([1]; mouse type hetero): -3% |
| CCCCCCNC(=O)Nc1ccc(S(=O)(=O)N2CCC(CNC[C@H](O)COc3ccc(O)cc3)CC2)cc1 [Example 59, 1-Hexyl-3-[4-(4-{[(2S)-2-hydroa-3-(4-hydroxy-phenoxy)-propylamino]-methyl}-piperidine-1-sulfonyl)-phenyl]-urea] |  | 5 |  |
| O=C(Nc1ccccc1)Nc1ccc(S(=O)(=O)N2CCC(CNC[C@H](O)COc3ccc(O)cc3)CC2)cc1 [Example 63, 1-[4-(4-{[(2S)-2-Hydroxy-3-(4-hydroxy-phenoxy)-propylamino]-methyl}-piperidine-1-sulfonyl)-phenyl]-3-phenyl-urea] |  | 3 |  |
| O=C(Nc1ccc(S(=O)(=O)N2CCC(CNC[C@H](O)COc3ccc(O)cc3)CC2)cc1)Nc1ccccn1 [Example 66, 1-[4-(4-{[(2S)-2-Hydroxy-3-(4-hydroxy-phenoxy)-proplamino]-methyl}-piperidine-1-sulfonyl)-phenyl]-3-pyridin-2-yl-urea] | 189 °C | 4 |  |
| CCCCCCCCNC(=O)Nc1ccc(S(=O)(=O)N2CCC(CNC[C@H](O)COc3ccc(O)cc3)CC2)cc1 [Example 69, 1-[4-(4-{[(2S)-2-Hydroxy-3-(4-hydroxy-phenoxy)-propylamino]-methyl}-piperidine-1-sulfonyl)-phenyl]-3-octyl-urea] |  | 24 | change in vivo at 10 mg/kg ([1]; mouse type hetero): 24%; Thermogenesis, Transgenic Mice, Gavage % ([1]; mouse type hetero, gavage 30 mg/kg): 14% |
| CCCCCCCCNC(=O)Nc1ccc(S(=O)(=O)N2CCC(CNC[C@H](O)COc3ccc(O)c4c3CCC(=O)N4)CC2)cc1 [Example 74, 1-[4-(4-{[(2S)-2-Hydroxy-3-(8-hydroxy-2-oxo-1,2,3,4-tetrahydro-quinolin-5-yloxy)-propylamino]-methyl}-piperidine-1-sulfonyl)-phenyl]-3-octyl-urea] |  | 18 |  |
| O=C(NCCCc1cccs1)Nc1ccc(S(=O)(=O)N2CCC(CNC[C@H](O)COc3ccc(O)cc3)CC2)cc1 [Example 75, 1-[4-(4-1{[(2S)-2-Hydroxy-3-(4-hydroxy-phenoxy)-propylamino]-methyl}-piperidine-1-sulfonyl)-phenyl]-3-(3-thiophen-2-yl-propyl)-urea] |  | 5 |  |
| O=C(NCc1cc(F)ccc1F)Nc1ccc(S(=O)(=O)N2CCC(CNC[C@H](O)COc3ccc(O)cc3)CC2)cc1 [Example 77, 1-(2,5-Difluoro-benzyl)-3-[4-(4-{[(2S)-2-hydroxy-3-(4-hydroxy-phenoxy)-propylamino]-methyl}-piperidine-1-sulfonyl)-phenyl]-urea] |  | 4 |  |
| CS(=O)(=O)Nc1cc(OC[C@@H](O)CNCC2CCN(S(=O)(=O)c3ccc(NC(=O)NCc4cc(F)ccc4F)cc3)CC2)ccc1O [Example 79, N-(5-{(2S)-3-[(1-{4-[3-(2,5-Difluoro-benzyl)-ureido]-benzenesulfonyl}-piperidin-4-ylmethyl)-amino]-2-hydroxy-propoxy}-2-hydroxy-phenyl)-methanesulfonamide] |  | 10 |  |
| O=S(=O)(c1ccc(-n2cccn2)cc1)N1CCC(CNC[C@H](O)COc2ccc(O)cc2)CC1 [Example 93, 4-(2-Hydroxy-3-{[1-(4-pyrazol-1-yl-benzenesulfonyl)-piperidin-4-ylmethyl]-amino}-propoxy)-phenol] | 169 to 171 °C |  | EC50 [2]: 0.347 µM; IA(β3) [2]: 0.99 |
| CCc1cc(Br)ccc1S(=O)(=O)N1CCC(CNC[C@H](O)c2ccc(O)c(NS(C)(=O)=O)c2)CC1 [Example 168, N-(5-((1R)-2-[({1-[(4-bromo-2-ethylphenyl)sulfonyl]piperidin-4-yl}-methyl)amino]-1-hydroxyethyl}-2-hydroxyphenyl)-methanesulfonamide] |  |  | EC50 [2]: 0.94 µM; IA(β3) [2]: 0.72 |
| CS(=O)(=O)Nc1cc([C@@H](O)CNCC2CCN(S(=O)(=O)c3c(Cl)sc(Cl)c3Br)CC2)ccc1O [Example 173, N-(5-{(1R)-2-[({1-[(4-bromo-2,5-dichlorothien-3-yl)sulfonyl]-piperidin-4-yl}methyl)amino]-1-hydroxyethyl}-2-hydroxyphenyl)-methanesulfonamide] |  |  | EC50 [2]: 0.388 µM and 0.38 µM; IA(β3) [2]: 1.34 and 1.15 |
| CS(=O)(=O)Nc1cc([C@@H](O)CNCC2CCN(S(=O)(=O)c3ccc(CNC(=O)c4ccccc4)s3)CC2)ccc1O [Example 183, N-({5-[(4-{[((2R)-2-hydroxy-2-{4-hydroxy-3-[(methylsulfonyl)-amino]-phenyl}ethyl)amino]methyl}piperidin-1-yl)sulfonyl]thien-2-yl}methyl)benzamide] |  |  | EC50 [2]: 1.41 µM; IA(β3) [2]: 0.72 |
